Measurements reported in patent US8466161B2, “Hydroxamate derivative, a production method for the same, and a pharmaceutical composition comprising the same” (Chong Kun Dang Pharmaceutical Corp., priority 2009, dated 2013).
pIC50: −log10 of the molar value.

Assays:
HL60 cell line = experiment: Inhibitory effect on growth of HL60 cell line (MTT); assay type: cell-based; settings: Homo sapiens, HL-60, 72 h, 3 days culture
Experimental: In the culture of HL60 cells, 10% FBS-containing RPMI1640 medium was used Each of test substances was serially diluted in DMSO to a concentration of 10 mg/ml and serially diluted in PBS to a final concentration ranging from 100 μg/ml to 0.03 μg/ml. 20 μl (micro-liter) of each of the serially diluted test substances and 180 μl (micro-liter) of a medium containing 60×10^4 cells/ml were added to a 96-well plate and cultured under conditions of 37° C. and 5% CO2 for 3 days. After completion of the culture, 50 μl (micro-liter) of a solution of 1.25 mg/ml MTT (3-(4,5-dimethylthiazol-2-yl)-2,5-diphenyltetrazolium bromide) in PBS was added to each well of the plate and incubated at 37° C. for 3 hours. The formed formazan crystal was dissolved in 150 μl (micro-liter) of DMSO, and the absorbance at 570 nm was measured.

in vivo = settings: BALB/c nude, mouse, ip
[1] = test system: HCT116 (human colorectal carcinoma); experiment: In vivo anticancer activity, HCT116 tumor transplantation model; design: species or system BALB/c nude mice (human tumor xenograft)
Experimental: (§1) Male BALB/c nude mice (4-week old) used in human tumor transplantation studies were purchased from Central Animal Laboratory Inc. (Korea) or Orient Bio Inc. (Korea). The animals were permitted ad libitum access to sterile feed and water in a sterile breeding system at 23+0.5° C.
(§2) For use in tumor transplantation studies, the human cancer cell lines HCT116 (human colorectal carcinoma, CCL-247), PC-3 (human prostate adenocarcinoma, CRL-1435), and A549 (human lung carcinoma, CCL-185) were purchased from ATCC (American Type Culture Collection, Rockville, Md., USA).
(§3) HCT116 cells were cultured in an air incubator under conditions of 37° C. and 5% CO2 using McCoy'SA medium (Gibco BRL) containing 10% heat-inactivated fetal bovine serum (Gibco BRL) and 1% antibiotics-antymycotics (Gibco BRL). Cell lines other than the HCT116 cell line were cultured in an air incubator under conditions of 37° C. and 5% CO2 using RPM1640 medium (Gibco BRL) containing 10% heat-inactivated fetal bovine serum (Gibco BRL) and 1% antibiotics-antymycotics (Gibco BRL).
(§4) Studies on the in vivo transplantation of human cancer cells were carried out in the following manner. Human cancer cells (HCT116, PC-3, and A549) that proliferated in vitro were injected subcutaneously into the abdominal region of BALB/c nude mice and allowed to proliferate in vivo. 20-25 days after the injection, the mice were sacrificed by cervical dislocation, and the solid cancer that proliferated in each of the mice was isolated aseptically, and connective or necrotic tissue and skin was removed therefrom, thus collecting a fresh cancer tissue. 50 mg of a fragment was taken aseptically from the cancer tissue and inserted into a 16-gauge trocar which was then transplanted subcutaneously into the upper abdominal region of mice.
(§5) 15-30 days after the human cancer cell lines have been transplanted into the BALB/c nude mice, only mice in which the cancer cells have proliferated to a given size were selected and used in the experiment. When the tumor size in each of the test groups reached 100-200 mm^3 after cancer cell transplantation, the experiment was started.
(§6) The anticancer effect of each drug was evaluated based on the inhibition rate (IR %) of tumor volume that indicates the tumor volume at reference date in comparison with control groups. […] Tumor size=(short diameter)×(long diameter)/2 I.R.(%)=[1−(mean tumor size of drug-administered group)/(mean tumor size of control group)]×100

[2] = test system: A549 (human lung carcinoma); experiment: In vivo anticancer activity, A549 tumor transplantation model; design: species or system BALB/c nude mice (human tumor xenograft); settings: Table 20; 10 mg/kg/day, qd x 5, 3 wks
Experimental: as §1, §2, §3, §4, §5, §6

[3] = test system: PC-3 (human prostate adenocarcinoma); experiment: In vivo anticancer activity, PC-3 tumor transplantation model; design: species or system BALB/c nude mice (human tumor xenograft); settings: Table 21; 10 mg/kg/day, qd x 5, 3 wks
Experimental: as §1, §2, §3, §4, §5, §6

[4] = Table 19, 40 mg/kg/day, qd x 5, 2 wks, ip
[5] = Table 19, 60 mg/kg/day, qd x 5, 2 wks, ip

Compound | pIC50 (HL60 cell line) | also measured
Cc1cc2cc(-c3ccc(N(CCCCCCC(=O)NO)C(=O)N4CCN(C)CC4)cc3)ccc2[nH]1 [Compound 334, N-(7-(hydroxyamino)-7-oxoheptyl)-4-methyl-N-(4-(2-methyl-1H-indol-5-yl)phenyl)piperazine-1-carboxamide] | 7.70 to 8.00 | MTD at 2 weeks (in vivo): 60 mg/kg; IR (%) [1, 4]: 47%; IR (%) [1, 5]: 66%
CCN1CCN(C(=O)N(CCCCCCC(=O)NO)c2ccc(-c3ccc4cnn(C)c4c3)cc2)CC1 [Compound 336, 4-ethyl-N-(7-(hydroxyamino)-7-oxoheptyl)-N-(4-(1-methyl-1H-indazol-6-yl)phenyl)piperazine-1-carboxamide] | 7.00 to 7.30 | MTD at 2 weeks (in vivo): 80 mg/kg; IR (%) [1, 4]: 56%; IR (%) [1, 5]: 75%; IR (%) ([1]; Table 19, 80 mg/kg/day, qd x 5, 2 wks, ip): 78%; colon cancer (HCT 116) inhibitory effect compared to control drugs ([1]; ip, qd x 5, 2 wks, in words): excellent inhibitory effects on colon cancer
CCN1CCN(C(=O)N(CCCCCCC(=O)NO)c2ccc(-c3ccc4[nH]ccc4c3)cc2)CC1 [Compound 340, N-(4-(1H-indol-5-yl)phenyl)-4-ethyl-N-(7-(hydroxyamino)-7-oxoheptyl)piperazine-1-carboxamide] | 7.70 to 8.00 | –
Cc1cc2cc(-c3ccc(N(CCCCCCC(=O)NO)S(C)(=O)=O)cc3)ccc2[nH]1 [Compound 296, N-hydroxy-7-(N-(4-(2-methyl-1H-indol-5-yl)phenyl)methylsulfonamido)heptanamide] | 7.00 to 7.30 | –
Cn1ncc2ccc(-c3ccc(N(CCCCCCC(=O)NO)S(C)(=O)=O)cc3)cc21 [Compound 284, N-hydroxy-7-(N-(4-(1-methyl-1H-indazol-6-yl)phenyl)methylsulfonamido)heptanamide] | 7.00 to 7.30 | –
CN1CCN(C(=O)N(CCCCCCC(=O)NO)c2ccc(-c3ccc4[nH]ccc4c3)cc2)CC1 [Compound 313, N-(4-(1H-indol-5-yl)phenyl)-N-(7-(hydroxyamino)-7-oxoheptyl)-4-methylpiperazine-1-carboxamide] | 7.30 to 7.70 | –
CS(=O)(=O)N(CCCCCCC(=O)NO)c1ccc(-c2ccc3cc[nH]c3c2)nc1 [Compound 326, 7-(N-(6-(1H-indol-6-yl)pyridin-3-yl)methylsulfonamido)-N-hydroxyheptanamide] | 7.30 to 7.70 | –
CN1CCN(C(=S)N(CCCCCCC(=O)NO)c2ccc(-c3ccc4cc[nH]c4c3)cc2)CC1 [Compound 357, 7-(N-(4-(1H-indol-6-yl)phenyl)-4-methylpiperazine-1-carbothioamido)-N-hydroxyheptanamide] | 7.00 to 7.30 | –
CN1CCN(C(=O)N(CCCCCCC(=O)NO)c2ccc(-c3ccc4c(cnn4C)c3)cc2)CC1 [Compound 350, N-(7-(hydroxyamino)-7-oxoheptyl)-4-methyl-N-(4-(1-methyl-1H-indazol-5-yl)phenyl)piperazine-1-carboxamide] | 7.30 to 7.70 | –
CCN1CCN(C(=O)N(CCCCCCC(=O)NO)c2ccc(-c3ccc4c(cnn4C)c3)cc2)CC1 [Compound 351, 4-ethyl-N-(7-(hydroxyamino)-7-oxoheptyl)-N-(4-(1-methyl-1H-indazol-5-yl)phenyl)piperazine-1-carboxamide] | 7.30 to 7.70 | –
CCS(=O)(=O)N(CCCCCCC(=O)NO)c1ccc(-c2ccc3[nH]ccc3c2)cc1 [Compound 314, 7-(N-(4-(1H-indol-5-yl)phenyl)ethylsulfonamido)-N-hydroxyheptanamide] | 7.30 to 7.70 | –
O=C(CCCCCCN(c1ccc(-c2ccc3cc[nH]c3c2)cc1)S(=O)(=O)c1cccnc1)NO [Compound 263, 7-(N-(4-(1H-indol-6-yl)phenyl)pyridine-3-sulfonamido)-N-hydroxyheptanamide] | 7.30 to 7.70 | –
Cc1[nH]c2ccccc2c1CCNCc1ccc(/C=C/C(=O)NO)cc1 [LBH 589, Panobinostat, reference compound] | 7.30 to 7.70 | IR (%) [2]: 58%; MTD at 2 weeks (in vivo): 10 mg/kg; IR (%) ([1]; Table 18, 5 mg/kg/day, qd x 5, 2 wks, ip): 40%; IR (%) ([1]; Table 18, 10 mg/kg/day, qd x 5, 2 wks, ip): 65%; IR (%) ([1]; Table 19, 5 mg/kg/day, qd x 5, 2 wks, ip): 40%; IR (%) ([1]; Table 19, 10 mg/kg/day, qd x 5, 2 wks, ip): 65%; IR (%) ([1]; Table 22, 50 mg/kg/day, qd x 5, 3 wks, p.o): 0%; IR (%) [3]: 48%
CN1CCCN(C(=O)N(CCCCCCC(=O)NO)c2ccc(-c3ccc4cc[nH]c4c3)cc2)CC1 [Compound 330, N-(4-(1H-indol-6-yl)phenyl)-N-(7-(hydroxyamino)-7-oxoheptyl)-4-methyl-1,4-diazepane-1-carboxamide] | 7.00 to 7.30 | –
COc1cc(NC(=O)N(CCCCCCC(=O)NO)c2ccc(-c3ccc4cc[nH]c4c3)cc2)cc(OC)c1 [Compound 260, 7-(1-(4-(1H-indol-6-yl)phenyl)-3-(3,5-dimethoxyphenyl)ureido)-N-hydroxyheptanamide] | 7.00 to 7.30 | –
O=C(CCCCCCN(C(=O)c1cccnc1)c1ccc(-c2ccc3cc[nH]c3c2)cc1)NO [Compound 181, N-(4-(1H-indol-6-yl)phenyl)-N-(7-(hydroxyamino)-7-oxoheptyl)nicotinamide] | 7.30 to 7.70 | –
CCOC(=O)N(CCCCCCC(=O)NO)c1ccc(-c2ccc3cc[nH]c3c2)cc1 [Compound 267, Ethyl 4-(1H-indol-6-yl)phenyl(7-(hydroxyamino)-7-oxoheptyl)carbamate] | 7.00 to 7.30 | –
Cn1ncc2ccc(-c3ccc(N(CCCCCCC(=O)NO)S(C)(=O)=O)cn3)cc21 [Compound 327, N-hydroxy-7-(N-(6-(1-methyl-1H-indazol-6-yl)pyridin-3-yl)methylsulfonamido)heptanamide] | 7.00 to 7.30 | –
CN(C)S(=O)(=O)N(CCCCCCC(=O)NO)c1ccc(-c2ccc3cc[nH]c3c2)cc1 [Compound 277, 7-((4-(1H-indol-6-yl)phenyl)(N,N-dimethylsulfamoyl)amino)-N-hydroxyheptanamide] | 7.00 to 7.30 | –
COc1cccc(NC(=O)N(CCCCCCC(=O)NO)c2ccc(-c3ccc4cc[nH]c4c3)cc2)c1 [Compound 256, 7-(1-(4-(1H-indol-6-yl)phenyl)-3-(3-methoxyphenyl)ureido)-N-hydroxyheptanamide] | 7.00 to 7.30 | –
Nc1ccccc1NC(=O)c1ccc(CNc2nccc(-c3cccnc3)n2)cc1 [MGCD 0103, reference compound] | – | IR (%) ([1]; Table 22, 120 mg/kg/day, qd x 5, 3 wks, p.o): 50%
CN(C)CC(=O)N(CCCCCCC(=O)NO)c1ccc(-c2ccc3cc[nH]c3c2)cc1 [Compound 265, 7-(N-(4-(1H-indol-6-yl)phenyl)-2-(dimethylamino)acetamido)-N-hydroxyheptanamide] | 7.00 to 7.30 | –
